Data as given in patent US11332459B2 (TEIJIN PHARMA LIMITED, priority 2017, dated 2022).
Where a name gives a salt, the structure may show the parent alone.

Target: T1, human TRPC6 (Homo sapiens, UniProt Q9Y210)
T1 construct: expressed in transfected cells
T1 sequence (Q9Y210 1-931): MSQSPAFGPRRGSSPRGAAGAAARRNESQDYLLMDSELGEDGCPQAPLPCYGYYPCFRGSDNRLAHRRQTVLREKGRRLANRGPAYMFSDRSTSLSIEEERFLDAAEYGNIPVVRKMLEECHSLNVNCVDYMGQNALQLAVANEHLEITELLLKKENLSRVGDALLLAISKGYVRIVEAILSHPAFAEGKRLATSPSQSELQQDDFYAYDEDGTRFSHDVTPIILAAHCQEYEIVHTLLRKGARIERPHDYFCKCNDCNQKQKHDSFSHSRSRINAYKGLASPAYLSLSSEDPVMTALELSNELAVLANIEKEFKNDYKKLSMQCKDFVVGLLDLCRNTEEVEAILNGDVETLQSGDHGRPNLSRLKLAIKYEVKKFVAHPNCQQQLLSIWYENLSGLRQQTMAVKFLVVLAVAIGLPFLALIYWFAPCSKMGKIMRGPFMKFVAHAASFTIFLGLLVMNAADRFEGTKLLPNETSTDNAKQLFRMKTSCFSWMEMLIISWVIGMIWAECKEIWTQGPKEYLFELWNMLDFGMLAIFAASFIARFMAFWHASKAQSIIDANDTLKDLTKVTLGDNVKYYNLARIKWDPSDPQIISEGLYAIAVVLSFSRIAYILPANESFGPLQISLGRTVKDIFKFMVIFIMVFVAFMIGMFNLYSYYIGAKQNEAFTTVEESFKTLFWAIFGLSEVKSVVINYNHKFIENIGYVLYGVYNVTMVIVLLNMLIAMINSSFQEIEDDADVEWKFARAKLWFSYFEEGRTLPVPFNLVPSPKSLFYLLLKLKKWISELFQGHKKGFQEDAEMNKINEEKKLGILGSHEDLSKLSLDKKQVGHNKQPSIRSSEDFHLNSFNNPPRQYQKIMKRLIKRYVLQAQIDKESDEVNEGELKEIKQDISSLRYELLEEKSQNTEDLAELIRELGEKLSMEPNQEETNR
Test: TRPC6 calcium flux assay (FLIPR, OAG-stimulated calcium influx)
Format: cell-based
Conditions: HEK293 cells stably transfected with human TRPC6, read-out: hTRPC6 Potency
Outline: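 HEK293 cells stably expressing human TRPC6, loaded with calcium dye 90–120 min at RT, then given compound for 25 min before OAG (50 uM final, 0.5% DMSO) in HEPES buffer pH 7.2 with 2 mM CaCl2. Background-subtracted FLIPR peak over 180 s normalized to OAG vs buffer; IC50 from dose plot.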

| SMILES | IC50 [µM] |
| --- | --- |
| N[C@@H]1CN(c2nc3cc(F)c(F)cc3n2CC(=O)N2CC3(CCOCC3)C2)CC[C@H]1F [Example 431, 2-(2-((3R,4R)-3-amino-4-fluoropiperidin-1-yl)-5,6-difluoro-1H-benzo[d]imidazol-1-yl)-1-(7-oxa-2-azaspiro[3.5]nonan-2-yl)ethanone] | > 3.75 |
| N[C@@H]1CN(c2nc3ccc(F)cc3n2CC(=O)N2CCOC[C@H]2CO)CC[C@H]1F [Example 686, 2-(2-((3R,4R)-3-amino-4-fluoropiperidin-1-yl)-6-fluoro-1H-benzo[d]imidazol-1-yl)-1-((R)-3-(hydroxymethyl)morpholino) ethan-1-one] | 1.57 |
| N[C@@H]1CN(c2nc3cc(F)c(F)cc3n2C2CCCN(c3ccccc3)C2=O)CC[C@H]1F (mixture of isomers) [Example 239, 3-(2-((3R,4R)-3-amino-4-fluoropiperidin-1-yl)-5,6-difluoro-1H-benzo[d]imidazol-1-yl)-1-phenylpiperidin-2-one] | 0.562 |
| N#Cc1ccc(Cn2c(N3CC[C@H](O)[C@H](N)C3)nc3cc(F)ccc32)nc1 [Example 312, 6-((2-((3R,4S)-3-amino-4-hydroxypiperidin-1-yl)-5-fluoro-1H-benzo[d]imidazol-1-yl)methyl)nicotinonitrile] | 2.86 |
| N#Cc1ccc(Cn2c(N3CCC[C@@H](N)C3)nc3ccccc32)cc1 [Example 162, (R)-4-((2-(3-aminopiperidin-1-yl)-1H-benzo[d]imidazol-1-yl)methyl)benzonitrile] | 0.257 |
| CC(c1ccncc1)N(C)C(=O)Cn1c(N2CC[C@@H](F)[C@H](N)C2)nc2cc(F)c(F)cc21 (stereo partly drawn) [Example 613, 2-(2-((3R,4R)-3-amino-4-fluoropiperidin-1-yl)-5,6-difluoro-1H-benzo[d]imidazol-1-yl)-N-methyl-N-(1-(pyridin-4-yl)ethyl)acetamide] | 0.0242 |
| N[C@@H]1CN(c2nc3ccc(C(F)(F)F)cc3n2CC(=O)N2CCOCC2)CC[C@H]1F [Example 459, 2-(2-((3R,4R)-3-amino-4-fluoropiperidin-1-yl)-6-(trifluoromethyl)-1H-benzo[d]imidazol-1-yl)-1-morpholinoethan-1-one] | 0.0164 |
| N#Cc1ccc(Cn2c(N3CCC[C@H](N)C3)nc3cc(F)cc(F)c32)nc1 [Example 62, (S)-6-((2-(3-aminopiperidin-yl)-5,7-difluoro-1H-benzo[d]imidazol-1-yl)methyl)nicotinonitrile] | 0.0603 |
| N[C@@H]1CN(c2nc3cc(F)c(F)cc3n2Cc2ccc(-n3cncn3)cc2)CC[C@H]1F [Example 339, (3R,4R)-1-(5,6-difluoro-1-(4-(1H-1,2,4-triazol-1-yl)benzyl)-1H-benzimidazol-2-yl)-4-fluoro-3-piperidinamine] | 0.00323 |
| N[C@@H]1CN(c2nc3cc(F)c(F)cc3n2CC(=O)N2CCC3CC32)CC[C@H]1F (mixture of isomers) [Example 609, 2-(2-((3R,4R)-3-amino-4-fluoropiperidin-1-yl)-5,6-difluoro-1H-benzo[d]imidazol-1-yl)-1-(2-azabicyclo[3.1.0]hexan-2-yl)ethanone] | 0.0203 |
| N#Cc1cnc(Cn2c(N3CC[C@@H](F)[C@H](N)C3)nc3cc(F)cc(F)c32)cn1 [Example 252, 5-((2-((3R,4R)-3-amino-4-fluoro-1-piperidinyl)-5,7-difluoro-1H-benzimidazol-1-yl)methyl)-2-pyrazinecarbonitrile] | 0.00876 |
| N#Cc1ccccc1Cn1c(N2CC[C@@H](F)[C@H](N)C2)nc2cc(F)c(F)cc21 [Example 353, 2-((2-((3R,4R)-3-amino-4-fluoro-1-piperidinyl)-5,6-difluoro-1H-benzimidazol-1-yl)methyl)benzonitrile] | 0.0308 |
| N[C@@H]1CN(c2nc3ccc(F)cc3n2Cc2nnc(C(F)F)s2)CC[C@H]1F [Example 573, (3R,4R)-1-(1-((5-(difluoromethyl)-1,3,4-thiadiazol-2-yl)methyl)-6-fluoro-1H-benzo[d]imidazol-2-yl)-4-fluoropiperidin-3-amine] | 0.117 |
| CN[C@@H]1CN(c2nc3cc(F)ccc3n2CC(=O)N(C)CC(F)(F)F)CC[C@H]1F [Example 479, 2-(5-fluoro-2-((3R,4R)-4-fluoro-3-(methylamino)piperidin-1-yl)-1H-benzo[d]imidazol-1-yl)-N-methyl-N-(2,2,2-trifluoroethyl)acetamide] | 1.2 |
| COCCN(C)C(=O)Cn1c(N2CC[C@@H](F)[C@H](N)C2)nc2ccc(F)cc21 [Example 663, 2-(2-((3R,4R)-3-amino-4-fluoropiperidin-1-yl)-6-fluoro-1H-benzo[d]imidazol-1-yl)-N-(2-methoxyethyl)-N-methylacetamide] | 0.294 |
| Cc1nnc(Cn2c(N3CC[C@@H](F)[C@H](N)C3)nc3cc(F)c(F)cc32)n1C [Example 586, (3R,4R)-1-(1-((4,5-dimethyl-4H-1,2,4-triazol-3-yl)methyl)-5,6-difluoro-1H-benzo[d]imidazol-2-yl)-4-fluoropiperidin-3-amine] | 0.747 |
| CN1CC[C@H](n2c(N3CC[C@@H](F)[C@H](N)C3)nc3cc(F)c(F)cc32)C1=O [Example 245, (S)-3-(2-((3R,4R)-3-amino-4-fluoropiperidin-1-yl)-5,6-difluoro-1H-benzo[d]imidazol-1-yl)-1-methylpyrrolidin-2-one] | 0.0625 |
| C[C@@H](c1ccc(C#N)cn1)n1c(N2CC[C@@H](F)[C@H](N)C2)nc2cc(C#N)ccc21 [Example 226, 2-((3R,4R)-3-amino-4-fluoropiperidin-1-yl)-1-((S)-1-(5-cyanopyridin-2-yl)ethyl)-1H-benzo[d]imidazole-5-carbonitrile hydrochloride] | 0.0137 |
| Cc1cnc(Cn2c(N3CC[C@@H](F)[C@H](N)C3)nc3cc(F)c(F)cc32)s1 [Example 551, (3R,4R)-1-(5,6-difluoro-1-((5-methylthiazol-2-yl)methyl)-1H-benzo[d]imidazol-2-yl)-4-fluoropiperidin-3-amine] | 0.0061 |
| CCNC(=O)Cn1c(N2CC[C@@H](F)[C@H](N)C2)nc2cc(F)c(F)cc21 [Example 282, 2-(2-((3R,4R)-3-amino-4-fluoro-1-piperidinyl)-5,6-difluoro-1H-benzimidazol-1-yl)-N-ethylacetamide] | 0.15 |
| N[C@@H]1CN(c2nc3c(F)cc(F)cc3n2Cc2ncc(F)cn2)CC[C@H]1F [Example 35, (3R,4R)-1-(4,6-difluoro-1-((5-fluoropyrimidin-2-yl)methyl)-1H-benzo[d]imidazol-2-yl)-4-fluoropiperidin-3-amine] | 0.000491 |
| N[C@@H]1CN(c2nc3cc(F)c(F)cc3n2Cc2ccc(Cl)cc2F)CC[C@H]1F [Example 358, (3R,4R)-1-(1-(4-chloro-2-fluorobenzyl)-5,6-difluoro-1H-benzimidazol-2-yl)-4-fluoro-3-piperidinamine] | 0.00647 |
| CN(CC(F)(F)F)C(=O)Cn1c(N2CC[C@H]3OCCN[C@@H]3C2)nc2ccc(F)cc21 [Example 488, 2-(6-fluoro-2-((4aR,8aR)-hexahydro-2H-pyrido[4,3-b][1,4]oxazin-6(5H)-yl)-1H-benzo[d]imidazol-1-yl)-N-methyl-N-(2,2,2-trifluoroethyl)acetamide] | > 3.75 |
| N#Cc1ccc(Cn2c(N3CCC(F)(F)[C@H](NCCO)C3)nc3ccc(F)cc32)nc1 [Example 433, (R)-6-((2-(4,4-difluoro-3-((2-hydroxyethyl)amino)piperidin-1-yl)-6-fluoro-1H-benzo[d]imidazol-1-yl)methyl)nicotinonitrile] | > 3.75 |
| CN(CC(F)(F)F)C(=O)Cn1c(N2CC[C@@H](F)[C@H](N)C2)nc2c(C#N)cc(F)cc21 [Example 447, 2-(2-((3R,4R)-3-amino-4-fluoropiperidin-1-yl)-4-cyano-6-fluoro-1H-benzo[d]imidazol-1-yl)-N-methyl-N-(2,2,2-trifluoroethyl)acetamide] | 0.119 |
| CN(C(=O)Cn1c(N2CC[C@@H](F)[C@H](N)C2)nc2cc(F)c(F)cc21)C1CCS(=O)(=O)CC1 [Example 651, 2-(2-((3R,4R)-3-amino-4-fluoropiperidin-1-yl)-5,6-difluoro-1H-benzo[d]imidazol-1-yl)-N-(1,1-dioxidotetrahydro-2H-thiopyran-4-yl)-N-methylacetamide] | > 3.75 |
| N[C@@H]1CN(c2nc3ccccc3n2Cc2ncc(Cl)cn2)CC[C@H]1F [Example 195, (3R,4R)-1-(1-((5-chloropyrimidin-2-yl)methyl)-1H-benzo[d]imidazol-2-yl)-4-fluoropiperidin-3-amine] | 0.000664 |
